Patent US8410056B2, “Pro-oxidant anti-cancer compounds” (priority 2006, dated 2013)
pIC50: −log10 of the molar value.

How the values were obtained:
MDA-MB-453 cells = assay: Apoptosis, annexin V-FITC method; assay type: cell-based, human
Procedure: (§1) Cell culture and treatment. […] Cells were cultured in DMEM with 10% FCS, 100 U/ml penicillin and 100 μg/ml streptomycin at 37° C. in a humidified atmosphere of 5% CO2. Mitochondrial complex I-deficient (Breen and Scheffler 1979; DeFrancesco et al 1976; Scheffler et al 2004) and complex II-deficient cells (Albayrak et al 2003; Oostveen et al 1995) were grown in DMEM with 10% FCS, […] glucose and non-essential amino acids.
At approximately 70% confluency, cells were treated with up to 50 μM α-TOS (Sigma), up to 100 μM 3-BP (Aldrich) or 30 ng/ml of human recombinant tumor necrosis factor-related apoptosis—inducing ligand (TRAIL) (Weber et al, 2002) under normoxic or hypoxic conditions. For hypoxia, cells overlaid with nitrogen-purged medium were placed in a hypoxic chamber pre-flushed extensively with nitrogen. The hypoxic chamber with cells was then placed in the incubator as required. α-TOS was dissolved in ethanol and used such that the final ethanol concentration in cell culture medium was <0.1% (v/v). Stock solutions of 3-BP were prepared in PBS prior to use.
(§2) Apoptosis assessment. Apoptosis was quantified using the annexin V-FITC method, which detects phosphatidyl serine externalized in the early phases of apoptosis (Boersma et al, 1996). Briefly, cells were plated at 10^5 per well in 24-well plates and, after an overnight recuperation, treated with α-TOS or 3-BP alone or in combination. Floating and attached cells were harvested, washed with PBS, resuspended in 0.2 ml binding buffer (10 mM Hepes, 140 mM NaCl, 5 mM CaCl2, pH 7.4), incubated for 30 min at 4° C. with 2 μl annexin V-FITC (PharMingen), supplemented with 200 μl of 50 μg/ml propidium iodide (PI; Sigma), and analyzed by flow cytometry (FACScalibur, Becton Dickinson) using channel 1 for annexin V-FITC binding and channel 2 for PI staining. Cell death was quantified as the percentage of cells with increased annexin V binding and PI staining.
RNA interference (RNAi). Short-interfering RNA (siRNA) oligonucleotides with 3′-dTdT overhangs specific for Akt1 were synthesized by Qiagen. The sequences are as follows: target sequence: […] (SEQ ID NO 2); siRNA duplex sequences: sense—r([…] )dTdT (SEQ ID NO 3), antisense—r([…] )dTdT (SEQ ID NO 4). The transfection of cultured MDA-MB-453 cells with siRNA was performed using OligofectAmine (Invitrogen) and OptiMEM according to the manufacturer's instructions. Briefly, cells were allowed to reach 50% confluency and supplemented with […] siRNA pre-incubated with OligofectAmine and overlayed with OptiMEM. Cells were washed 24 h later with PBS, overlayed with complete DMEM and treated as required after an additional 24 h.
Transfection of MDA-MB-453 cells with siRNAs was performed using OligofectAmine and OptiMEM. Briefly, cells were allowed to reach ˜50% confluency and supplemented with 60 pmol/l siRNA pre-incubated with OligofectAmine and overlayed with OptiMEM. Cells were washed 24 h later with PBS, overlaid with complete DMEM, cultured for an additional 24 h, 48 h and transgene expression confirmed using Western blotting before they were used for further experiments.

[1] = molecular target: T1, SDH/Complex II, isolated rat liver mitochondria (Rattus norvegicus, UniProt P21913+Q641Z9+Q6PCT8); assay: SDH/Complex II activity, DCIP/PMS assay; assay type: biochemical; details: 100 or 300 μM α-TOS; compared to control
T1 construct: Rat liver mitochondria were prepared by differential centrifugation; from tissue; host or cells: rat liver mitochondria / sub-mitochondrial particles
Procedure: Preparation of sub-mitochondrial particles (SMPs) from isolated rat liver. Rat liver mitochondria were prepared by differential centrifugation according to the modified method of Rice and Lindsay, 1997. 2 ml of mitochondrial pellet were resuspended in 15 ml of 20 mM KH2 PO4 pH 7.4 and sonicated at a setting of 80 Watt for 3×15 s. The sonicated solution was then centrifuged at 6,500×g for 7 min. The supernatant fraction was kept on ice and the remaining pellet resuspended and sonicated again. The sonicated solution was centrifuged as before and the supernatant removed from the second centrifugation step combined with that from the first centrifrugation. The combined supernatant was recentrifitged at 108,000×g for 1 h. The pellet of SMPs was resuspended in 5 ml of 20 mM KH2PO4 pH 7.4 and stored frozen at −20° C. until used.
Measurement of mitochondrial complex II and complex I activity. A time course for the reduction of the complex II substrate 2,6-dichlorophenol indophenol (DCIP) by the mitochondrial preparations was followed by measuring the absorbance at 600 nm in 1 cm cuvettes containing a 1 ml reaction volume (ε600=21×10^3 M^−1cm^−1). The reaction components included NADH, 0.5 mM; succinate, 5 mM; KCN, 10 mM; DCIP, 50 μM; PMS, 50 μM. […] The change in absorbance of DCIP was measured using a spectrophotometer (UVIKON XL, Secomam) and replicate samples were assayed (n=3). […]

[2] = system: Chinese hamster lung fibroblasts (B1, B10, B9, B9rec cells); assay: ROS, SDH activity and apoptosis in complex I- and complex II-deficient cells; assay type: cell-based
Procedure: as §1
Assessment of ROS accumulation. Cellular ROS were detected with the probe dihydroethidinium (DHE) (Molecular Probes) by flow cytometry (Weber et al, 2003), or by trapping with 5,5-dimethyl-1-pyrroline N-oxide (DMPO; Sigma) using electron paramagnetic resonance (EPR) spectro-scopy (Weber et al, 2003). In some studies, the cells were pre-treated for 1 h with 2 μM MitoQ (James et al, 2005) or coincubated with SOD (PEG-SOD, 750 units/ml; Sigma).
as §2
Complex I- and complex II-deficient cells were also used to confirm the above in vitro results of Example 6.

[3] = system: Jurkat, HBT11, MCF7, MCF7-C3; details: Birringer et al, cited from earlier work
[4] = compared to parental (B1) or B10 cells

T1 sequence (P21913 31-282): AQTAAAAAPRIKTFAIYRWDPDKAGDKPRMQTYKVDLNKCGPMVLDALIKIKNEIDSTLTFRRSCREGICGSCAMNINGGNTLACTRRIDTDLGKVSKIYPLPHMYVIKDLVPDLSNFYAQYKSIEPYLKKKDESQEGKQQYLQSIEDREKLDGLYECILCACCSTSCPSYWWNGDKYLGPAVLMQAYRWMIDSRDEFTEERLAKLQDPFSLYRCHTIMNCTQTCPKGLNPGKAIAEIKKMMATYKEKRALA
T1 sequence (Q641Z9 30-169 limits assumed): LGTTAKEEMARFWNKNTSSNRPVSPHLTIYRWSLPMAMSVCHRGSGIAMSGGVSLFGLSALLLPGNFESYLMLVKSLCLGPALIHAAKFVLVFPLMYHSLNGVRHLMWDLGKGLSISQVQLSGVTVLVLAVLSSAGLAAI
T1 sequence (Q6PCT8 57-159): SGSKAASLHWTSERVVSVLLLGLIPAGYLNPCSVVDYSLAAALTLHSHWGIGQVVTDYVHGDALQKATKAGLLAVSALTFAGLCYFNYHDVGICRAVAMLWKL
T1 sequence (Q920L2 35-656 partner): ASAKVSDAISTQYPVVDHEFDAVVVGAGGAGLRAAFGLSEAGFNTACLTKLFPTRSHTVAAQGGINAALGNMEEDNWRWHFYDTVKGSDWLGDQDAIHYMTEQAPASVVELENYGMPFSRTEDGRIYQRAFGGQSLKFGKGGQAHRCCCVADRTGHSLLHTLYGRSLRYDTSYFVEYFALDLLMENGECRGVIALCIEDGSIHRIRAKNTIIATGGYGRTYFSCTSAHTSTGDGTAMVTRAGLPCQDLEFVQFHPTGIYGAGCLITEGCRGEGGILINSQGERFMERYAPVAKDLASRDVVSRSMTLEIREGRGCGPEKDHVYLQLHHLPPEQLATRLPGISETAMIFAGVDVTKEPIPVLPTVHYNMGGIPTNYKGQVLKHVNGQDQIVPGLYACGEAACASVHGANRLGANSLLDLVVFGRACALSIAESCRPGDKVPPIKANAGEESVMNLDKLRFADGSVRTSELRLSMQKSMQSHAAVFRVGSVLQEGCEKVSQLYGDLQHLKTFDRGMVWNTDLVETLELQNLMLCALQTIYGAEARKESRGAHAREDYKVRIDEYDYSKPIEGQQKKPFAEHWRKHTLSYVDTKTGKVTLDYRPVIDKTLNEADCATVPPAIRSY

Cc1c(C)c2c(c(C)c1OC(=O)CCC(=O)O)CC[C@@](C)(CCC[C@H](C)CCC[C@H](C)CCCC(C)C)O2 [Compound 1, α-tocopheryl succinate]
apoptosis (MDA-MB-453 cells; MDA-MB-453 (erbB2-high), normoxia or hypoxia): sensitive to apoptosis induced by α-TOS under both normoxia and hypoxia | apoptosis after Akt1 knock-down (MDA-MB-453 cells; pre-treated with 60 pM Akt1 siRNA for 24 h, then drug 24 h): sensitizes | rate of reduction of DCIP (SDH/Complex II activity) [1]: decreased rapidly and significantly after treatment with α-TOS | apoptosis in B1, B10 and B9 cells [2]: initiated apoptosis | cell killing in CII-reconstituted B9 cells ([2]; CybL-mutant (B9) cells after reconstitution of CII): restored cell sensitivity to α-TOS-induced killing | ROS accumulation in CII-dysfunctional B9 cells [2, 4]: lower levels of ROS accumulation | apoptosis in CII-dysfunctional B9 cells [2, 4]: relatively resistant to apoptosis | pro-apoptotic activity ([3]; compared with α-TOS and isomers): highest apoptogenic activity | pIC50 ([3]; Jurkat, HBT11, MCF7, MCF7-C3, 2003): 4.37
